System: Sprague Dawley rats
Assay: Mean systemic arterial pressure
Format: in vivo
Conditions: healthy rats, intravenous 3 mg/kg

| SMILES | change in mSAP (until 6 h after injection) | duration of the reduction in mSAP after injection | maximum reduction of mSAP from baseline (within 30 min) |
| --- | --- | --- | --- |
| O=[N+]([O-])c1ccc(COc2nccc3c(S(=O)(=O)N4CCCNCC4)cccc23)cc1 [FasPRO, 5-((1,4-diazepan-1-yl)sulfonyl)-1-((4-nitrobenzyl)oxy)isoquinoline] | did not produce any changes in mSAP |  |  |
| O=S(=O)(c1cccc2cnccc12)N1CCCNCC1 [Fasudil, reference compound] |  | 90 min | 38.6±8.4% |

Source: paper PMC8378262 (Journal of controlled release : official journal of the …, 2021)
